Measurements: ChEMBL document CHEMBL1133881, “Antimalarial halorosellinic acid from the marine fungus Halorosellinia oceanica” (Bioorg Med Chem Lett, 2001)
≈ marks a conversion by molar mass, not a printed value. Calls of active or inactive are those of the source. The rule behind the calls is not given here.

Tests used:
BC1 cell line [1] = assay: Cytotoxic activity against human breast cancer cells of BC-1 cell lines; NA means inactive at 20 ug/mL; assay type: functional, cell-based
KB [2] = assay: Cytotoxic activity against human epidermoid carcinoma cells of KB cell lines in mouth; NA means inactive at 20 ug/mL; assay type: functional, cell-based
[3] = tested on: Mycobacterium tuberculosis; assay: Antimycobacterial activity was assessed against Mycobacterium tuberculosis H37Ra using theMicroplate Alamar Blue Assay (MABA); NA means inactive at 200 ug/mL; assay type: functional, organism-based
Plasmodium falciparum [4] = assay: Antimalarial activity against multidrug-resistant Plasmodium falciparum K1; Not active at 20 ug/mL; assay type: functional, organism-based
[5] = tested on: Mycobacterium tuberculosis; assay: Antimycobacterial activity was assessed against Mycobacterium tuberculosis H37Ra using theMicroplate Alamar Blue Assay (MABA); assay type: functional
Plasmodium falciparum [6] = assay: Antimalarial activity against multidrug-resistant Plasmodium falciparum K1; assay type: functional, organism-based
BC1 cell line [7] = assay: Cytotoxic activity against human breast cancer cells of BC-1 cell lines; assay type: functional, cell-based
KB [8] = assay: Cytotoxic activity against human epidermoid carcinoma cells of KB cell lines in mouth; assay type: functional, cell-based

SMILES: CCCCC/C=C(/C(=O)O)C(C)C(=O)OC (centres undefined)
- IC50 (BC1 cell line [1]): Not Active
- IC50 (KB [2]): Not Active
- MIC [3]: inactive
- IC50 (Plasmodium falciparum [4]): Not Active

SMILES: C/C(=C\C1OC(C)(C)O[C@@H]1[C@H](C)C1=CC[C@@]2(C)C[C@@H]3[C@H](C)CC[C@@H]3/C(C(=O)O)=C\C[C@H]12)C(=O)O (some centres undefined)
- IC50 (BC1 cell line [1]): Not Active
- IC50 (KB [2]): Not Active
- MIC [5]: 200 µg/mL (≈ 423 µM)
- IC50 (Plasmodium falciparum [6]): 19 µg/mL (≈ 40.2 µM)

SMILES: C/C(=C\[C@H](O)[C@H](O)[C@H](C)C1=CC[C@@]2(C)C[C@@H]3[C@H](C)CC[C@@H]3/C(C(=O)O)=C\C[C@H]12)C(=O)O
- IC50 (BC1 cell line [1]): Not Active
- IC50 (KB [2]): Not Active
- MIC [5]: 200 µg/mL (≈ 462 µM)
- IC50 (Plasmodium falciparum [6]): 13 µg/mL (≈ 30.1 µM)

SMILES: C[C@H]1Cc2c(C(=O)O)ccc(O)c2C(=O)O1
- IC50 (BC1 cell line [7]): 3 µg/mL (≈ 13.5 µM)
- IC50 (KB [8]): 3 µg/mL (≈ 13.5 µM)
- MIC [3]: inactive
- IC50 (Plasmodium falciparum [6]): 4 µg/mL (≈ 18 µM)

SMILES: CC(=O)O[C@@H]1/C=C/[C@@](C)(O)C(=O)[C@@H](C)C/C=C/[C@H]2[C@@H]3O[C@]3(C)[C@@H](C)[C@H]3[C@H](Cc4ccccc4)NC(=O)[C@@]312 [CYTOCHALASIN Q]
- IC50 (BC1 cell line [7]): 1 µg/mL (≈ 1.97 µM)
- IC50 (KB [8]): 3 µg/mL (≈ 5.91 µM)
- MIC [3]: inactive
- IC50 (Plasmodium falciparum [6]): 17 µg/mL (≈ 33.5 µM)

SMILES: CCCCC/C=C(/C(=O)O)C(C)C(=O)O (centres undefined)
- IC50 (BC1 cell line [7]): 5 µg/mL (≈ 23.3 µM)
- IC50 (KB [8]): 13 µg/mL (≈ 60.7 µM)
- MIC [3]: inactive
- IC50 (Plasmodium falciparum [4]): Not Active
